Source: patent US20050112607A1, “Rapid and sensitive detection of protein aggregation” (priority 1999, published 2005)

Legend:
[1] = Colloid/colloid linkage via biotin/streptavidin, color change; format: binding; conditions: streptavidin added to biotin-SAM colloids
Experimental: A set of gold colloids was derivatized with self-assembled monolayers that incorporated biotin-thiols (SAM forming species included C11, 3 ethylene glycol units, then biotin) along with C16 carboxy-terminated thiols (a mixed SAM). Streptavidin, which has four binding sites for biotin, or a random protein (GST) was added to the colloid solutions.

[2] = test system: histidine-tagged RGD-motif-containing peptide; assay: Colloid/colloid color change assay with RGD-peptide-bound NTA-Ni colloids; format: binding; conditions: 100 ul or 50 ul protein per well, room temperature, after approximately 15 minutes
Experimental: (§1) 600 microliters colloids, derivatized with a self-assembled monolayer that presents nitrilo tri-acetic acid, NTA (for the capture of histidine-tagged proteins), was mixed with 60 microliters of 500 micromolar histidine-tagged RGD-motif-containing peptide. 600 microliters of a second set of NTA-Ni presenting colloids was mixed with 60 ul of a 500 uM solution of GST, an irrelevant protein, as a negative control. Colloids were spun down and resuspended in phosphate buffer to remove residual unbound protein or peptide. Endostatin and Angiostatin, two proteins implicated in angiogenesis and suspected of binding to regions of vitronectin, such as the RGD peptide, were prepared by dialysis into phoshate-buffered saline solution and then 1:10 dilution into PBS from a stock concentration of 1 mg/mL.
(§2) 400 ul phosphate buffer (pH 7.4), 200 ul either RGD-bound colloids or GST-bound colloids, and either 100 ul endostatin or angiostatin, 50 ul endostatin or angiostatin/50 ul phosphate buffer, or 100 ul phosphate buffer (as a negative control) were added to each well of a crystallization dish. Color change was monitored over time at room temperature. […] The histidine-tagged proteins were then eluted using imidazole, and the samples were analyzed by SDS-PAGE. […]

GST = GST (Schistosoma japonicum, UniProt P08515); assay: Colloid/colloid color change assay with GST-bound NTA-Ni colloids (irrelevant protein); format: binding; conditions: 100 ul or 50 ul protein per well, room temperature
Experimental: as §1, §2

[3] = test system: resin-immobilized RGD peptide; assay: NTA-Ni agarose resin binding, imidazole elution, SDS-PAGE (RGD peptide)
Experimental: (§3) 400 ul phosphate buffer (pH 7.4), 200 ul either RGD-bound colloids or GST-bound colloids, and either 100 ul endostatin or angiostatin, 50 ul endostatin or angiostatin/50 ul phosphate buffer, or 100 ul phosphate buffer (as a negative control) were added to each well of a crystallization dish. Color change was monitored over time at room temperature. […] The color change was more pronounced in the well that contained 100 ul endostatin than in the well that contained 50 ul endostatin/50 ul phospate buffer. […] Row A included colloids and angiostatin. Row B included colloids with endostatin. (Rows C and D are empty wells). Columns 1-3 have RGD peptide immobilized on the colloids. […] have an irrelevant protein, GST, immobilized on the colloid. Columns 1 and 4 contain […] of the relevant drug (endostatin or angiostatin). […] The results were verified by gel electrophoresis. The RGD peptide and histidine-tagged GST were bound to a small amount of NTA-Ni agarose resin at saturating concentration. Endostatin was incubated with the resin and allowed to bind to the protein on the resin. The histidine-tagged proteins were then eluted using imidazole, and the samples were analyzed by SDS-PAGE. […] This assay could be easily adapted for screening of drug candidates that either mimic the RGD-binding characteristic of endostatin or bind to the RGD-binding domains on endostatin. […]

resin-immobilized GST = resin-immobilized GST (Schistosoma japonicum, UniProt P08515); assay: NTA-Ni agarose resin binding, imidazole elution, SDS-PAGE (GST)
Experimental: as §3

Chain of GST (P08515 whole entry): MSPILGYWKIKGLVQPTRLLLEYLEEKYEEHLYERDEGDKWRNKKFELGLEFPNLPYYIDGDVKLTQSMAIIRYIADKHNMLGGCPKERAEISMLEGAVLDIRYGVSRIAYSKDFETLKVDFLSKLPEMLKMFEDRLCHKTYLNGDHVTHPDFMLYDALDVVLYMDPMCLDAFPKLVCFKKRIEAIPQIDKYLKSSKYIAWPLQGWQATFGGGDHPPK
Chain of resin-immobilized GST (P08515 whole entry): as above

Substance	Color change of biotin-presenting colloid solution [1]	Color change from red to blue of RGD-peptide-bound colloids [2]	Color change of GST-bound colloids (GST)	Binding to resin-immobilized RGD peptide (SDS-PAGE) [3]	Binding to resin-immobilized GST (SDS-PAGE) (resin-immobilized GST)
Streptavidin	immediately turned blue				
endostatin		a color change from red to blue was visible	No color change occurred	bound to the resin-immobilized RGD peptide	did not bind to the resin-immobilized GST
angiostatin		No color change occurred	No color change occurred		
